In PubChem BioAssay AID248 (DTP/NCI, 2004):
Values joined by “and” are separate entries in the source; they are usually repeats but may differ in a detail not shown here. Equal values may be shown once. Toxic doses and inconclusive results are not listed. Rule as the data show it: active = T/C of 150% or more; inactive = T/C below 125%.

System: L1210 leukemia ip in BDF1 mice, survival T/C
Test: NCI In Vivo Anticancer Drug Screen. Data for tumor model L1210 Leukemia (intraperitoneal) in B6D2F1 (BDF1) mice
Conditions: endpoint: mean survival time, higher = longer survival
How it was run: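 Transplantable tumor model; survival measured in treated vs vehicle control mice. Value = treated/control.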

[1] = dose: 100.0 mg/kg/injection, schedule: Q04DX003 (ip), vehicle: Klucel (hydroxypropylcellulose) (HPC)
[2] = dose: 200.0 mg/kg/injection, schedule: Q04DX003 (ip), vehicle: Klucel (hydroxypropylcellulose) (HPC)
[3] = dose: 400.0 mg/kg/injection, schedule: Q04DX003 (ip), vehicle: Klucel (hydroxypropylcellulose) (HPC)
[4] = dose: 100.0 mg/kg/injection, schedule: Q01DX009 (ip), vehicle: Klucel (hydroxypropylcellulose) (HPC)
[5] = dose: 100.0 mg/kg/injection, schedule: Q04DX002 (ip), vehicle: Klucel (hydroxypropylcellulose) (HPC)
[6] = dose: 200.0 mg/kg/injection, schedule: Q01DX009 (ip), vehicle: Klucel (hydroxypropylcellulose) (HPC)
[7] = dose: 200.0 mg/kg/injection, schedule: Q04DX002 (ip), vehicle: Klucel (hydroxypropylcellulose) (HPC)
[8] = dose: 400.0 mg/kg/injection, schedule: Q01DX009 (ip), vehicle: Klucel (hydroxypropylcellulose) (HPC)
[9] = dose: 400.0 mg/kg/injection, schedule: Q04DX002 (ip), vehicle: Klucel (hydroxypropylcellulose) (HPC)
[10] = dose: 100.0 mg/kg/injection, schedule: Q01DX009 (ip), vehicle: saline with Tween-80
[11] = dose: 200.0 mg/kg/injection, schedule: Q01DX009 (ip), vehicle: saline with Tween-80
[12] = dose: 400.0 mg/kg/injection, schedule: Q01DX009 (ip), vehicle: saline with Tween-80
[13] = dose: 12.5 mg/kg/injection, schedule: Q01DX009 (ip), vehicle: saline with Tween-80
[14] = dose: 25.0 mg/kg/injection, schedule: Q01DX009 (ip), vehicle: saline with Tween-80
[15] = dose: 100.0 mg/kg/injection, schedule: Q01DX001 (ip), vehicle: carboxymethylcellulose (CMC)
[16] = dose: 200.0 mg/kg/injection, schedule: Q01DX001 (ip), vehicle: carboxymethylcellulose (CMC)
[17] = dose: 400.0 mg/kg/injection, schedule: Q01DX001 (ip), vehicle: carboxymethylcellulose (CMC)
[18] = dose: 50.0 mg/kg/injection, schedule: Q01DX001 (ip), vehicle: saline
[19] = dose: 100.0 mg/kg/injection, schedule: Q01DX001 (ip), vehicle: saline
[20] = dose: 200.0 mg/kg/injection, schedule: Q01DX001 (ip), vehicle: saline
[21] = dose: 400.0 mg/kg/injection, schedule: Q01DX001 (ip), vehicle: saline
[22] = dose: 100.0 mg/kg/injection, schedule: Q04DX003 (ip), vehicle: saline with Tween-80
[23] = dose: 75.0 mg/kg/injection, schedule: Q01DX001 (ip), vehicle: saline
[24] = dose: 150.0 mg/kg/injection, schedule: Q01DX001 (ip), vehicle: saline
[25] = dose: 300.0 mg/kg/injection, schedule: Q01DX001 (ip), vehicle: saline
[26] = dose: 200.0 mg/kg/injection, schedule: Q04DX003 (ip), vehicle: saline with Tween-80
[27] = dose: 400.0 mg/kg/injection, schedule: Q04DX003 (ip), vehicle: saline with Tween-80

Measured: T/C

CC1(C)[C@H]2CC[C@@]1(C)C(=O)[C@H]2[N+](=O)[O-]
inactive: [1] 103 % of control | [2] 86 % of control | [3] 93 % of control

CC1(C)C(C(=O)O)CC1C(=O)C(=O)O (stereo not drawn)
inactive: dose: 75.0 mg/kg/injection, schedule: Q01DX001 (ip), vehicle: carboxymethylcellulose (CMC) 96 % of control | dose: 150.0 mg/kg/injection, schedule: Q01DX001 (ip), vehicle: carboxymethylcellulose (CMC) 96 % of control | dose: 300.0 mg/kg/injection, schedule: Q01DX001 (ip), vehicle: carboxymethylcellulose (CMC) 94 % of control

N#CCCN(C(=S)Nc1cccc(C(F)(F)F)c1)C1CCCCC1
inactive: dose: 100.0 mg/kg/injection, schedule: Q01DX001 (ip), vehicle: Klucel (hydroxypropylcellulose) (HPC) 96 % of control | [4] 107 % of control and 108 % of control | [5] 102 % of control and 104 % of control | [1] 98 % of control | dose: 200.0 mg/kg/injection, schedule: Q01DX001 (ip), vehicle: Klucel (hydroxypropylcellulose) (HPC) 90 % of control | [6] 101 % of control and 107 % of control | [7] 108 % of control and 114 % of control | [2] 97 % of control | dose: 400.0 mg/kg/injection, schedule: Q01DX001 (ip), vehicle: Klucel (hydroxypropylcellulose) (HPC) 98 % of control | [8] 96 % of control and 112 % of control | [9] 100 % of control and 101 % of control | [3] 97 % of control

Cc1ccc(NC(=S)N2CCOCC2)cc1C
inactive: [4] 94 % of control | [6] 100 % of control | [8] 94 % of control

COC(=O)CC1CCS(=O)(=O)C1 (stereo not drawn)
inactive: [10] 101 % of control | [11] 103 % of control | [12] 95 % of control

OC1C2C3CCC(C3)C2C(O)C2C3CCC(C3)C12 (stereo not drawn)
inactive: [13] 101 % of control | [14] 101 % of control

COc1ccccc1CN1CCCN(Cc2ccccc2OC)C1c1cccnc1
inactive: dose: 50.0 mg/kg/injection, schedule: Q01DX001 (ip), vehicle: carboxymethylcellulose (CMC) 112 % of control | [15] 108 % of control | [16] 106 % of control | [17] 108 % of control

CCC(=O)N1CCN(C(=O)CC)c2ccccc21
inactive: [18] 98 % of control | [19] 104 % of control | [20] 104 % of control | [21] 101 % of control

O=C(COc1ccc(Cl)cc1)OCCO
inactive: dose: 100.0 mg/kg/injection, schedule: Q01DX001 (ip), vehicle: gum acacia 90 % of control | dose: 200.0 mg/kg/injection, schedule: Q01DX001 (ip), vehicle: gum acacia 96 % of control | dose: 400.0 mg/kg/injection, schedule: Q01DX001 (ip), vehicle: gum acacia 95 % of control

O=C1c2ccccc2C(=O)N1CN1CCC(CCCC2CCN(CN3C(=O)c4ccccc4C3=O)CC2)CC1
inactive: [22] 92 % of control

O=C(Nc1ccccc1)Nc1ccc(C(=O)c2ccccc2)cc1
inactive: dose: 20.0 mg/kg/injection, schedule: Q01DX005 (ip), vehicle: saline with Tween-80 100 % of control | dose: 40.0 mg/kg/injection, schedule: Q01DX005 (ip), vehicle: saline with Tween-80 89 % of control | dose: 80.0 mg/kg/injection, schedule: Q01DX005 (ip), vehicle: saline with Tween-80 97 % of control | dose: 160.0 mg/kg/injection, schedule: Q01DX005 (ip), vehicle: saline with Tween-80 90 % of control | dose: 320.0 mg/kg/injection, schedule: Q01DX005 (ip), vehicle: saline with Tween-80 95 % of control

COC(=O)C1C2CCc3cc(OC)ccc3C2CCC1(C)C(=O)O (stereo not drawn)
inactive: [1] 95 % of control | [2] 95 % of control | [3] 91 % of control

NC(=O)c1nccc2ccccc12
inactive: [19] 110 % of control | [20] 107 % of control | [21] 98 % of control

NNC(=O)c1n[nH]c(=S)[nH]c1=O
inactive: [15] 98 % of control | [16] 103 % of control | [17] 95 % of control

COc1cc2c(cc1OC)C(Cc1ccc(O)cc1)N(C)CC2 (stereo not drawn)
inactive: [19] 96 % of control | [20] 91 % of control

CC(=O)Nc1ccc(CCc2nc(N)nc(Cl)c2-c2ccc(Cl)cc2)cc1
inactive: [23] 92 % of control | [24] 87 % of control | [25] 90 % of control

CCN(CC)CCSc1ncnc2nc[nH]c12
inactive: [23] 102 % of control | [24] 91 % of control | [25] 104 % of control

O=C1c2ccccc2C(=O)N1NS(=O)c1ccccc1 (stereo not drawn)
inactive: dose: 100.0 mg/kg/injection, schedule: Q04DX002 (ip), vehicle: saline with Tween-80 93 % of control | dose: 200.0 mg/kg/injection, schedule: Q04DX002 (ip), vehicle: saline with Tween-80 104 % of control | dose: 400.0 mg/kg/injection, schedule: Q04DX002 (ip), vehicle: saline with Tween-80 101 % of control

CC(CC(C)(C)C)OS(=O)(=O)c1ccc(Br)cc1 (stereo not drawn)
inactive: [22] 98 % of control | [26] 101 % of control | [27] 92 % of control

O/N=C(/CN1CCCCC1)c1ccccc1
inactive: [22] 95 % of control | [26] 98 % of control | [27] 104 % of control

CC(=O)C1C(N2CC2)CC2C3CCC4=CC(=O)CCC4(C)C3CCC21C (stereo not drawn)
inactive: dose: 50.0 mg/kg/injection, schedule: Q01DX001 (sc), vehicle: steriod suspending solution 101 % of control | dose: 100.0 mg/kg/injection, schedule: Q01DX001 (sc), vehicle: steriod suspending solution 104 % of control | dose: 200.0 mg/kg/injection, schedule: Q01DX001 (sc), vehicle: steriod suspending solution 101 % of control

C=C(C)[C@@H](/C=C/[C@@H](C)[C@H]1CC[C@H]2C3=CC[C@H]4C[C@@H](O)CC[C@]4(C)[C@H]3CC[C@]12C)CC
inactive: [15] 96 % of control | [16] 100 % of control

CCc1cc2oc(C)c(C)c2c(N=Nc2cccc([N+](=O)[O-])c2)c1O
inactive: [5] 96 % of control | [7] 96 % of control | [9] 93 % of control

COc1ccccc1C1OCC(C)(C)N1C (stereo not drawn)
inactive: [10] 101 % of control | [1] 97 % of control and 105 % of control | [11] 95 % of control | [2] 95 % of control | [12] 102 % of control | [3] 94 % of control and 93 % of control

N#C/C(=C\c1ccco1)c1ccc([N+](=O)[O-])cc1
inactive: dose: 6.25 mg/kg/injection, schedule: Q01DX009 (ip), vehicle: saline with Tween-80 90 % of control | [13] 90 % of control | [14] 95 % of control

c1ccc2c(c1)Nc1ccncc1S2
inactive: [10] 95 % of control | [11] 90 % of control | [12] 101 % of control

C[N+](C)(C)c1cc2c(nn1)Nc1ccccc1S2
inactive: [18] 123 % of control | [19] 116 % of control

Nc1cc2[nH]cnc2c(Br)n1
inactive: dose: 100.0 mg/kg/injection, schedule: Q04DX003 (ip), vehicle: water 116 % of control | dose: 200.0 mg/kg/injection, schedule: Q04DX003 (ip), vehicle: water 116 % of control | dose: 400.0 mg/kg/injection, schedule: Q04DX003 (ip), vehicle: water 102 % of control

O=C(O)C(Nc1ccc(Nc2ccccc2)cc1)c1ccccc1 (stereo not drawn)
inactive: [5] 100 % of control | [7] 103 % of control | [9] 114 % of control

O=C(O)/C(=C\CCC/C=C(\CCO)C(=O)O)CCO
inactive: dose: 100.0 mg/kg/injection, schedule: Q01DX001 (ip), vehicle: DMSO 100 % of control | dose: 100.0 mg/kg/injection, schedule: Q01DX009 (ip), vehicle: DMSO 99 % of control | dose: 200.0 mg/kg/injection, schedule: Q01DX001 (ip), vehicle: DMSO 97 % of control | dose: 200.0 mg/kg/injection, schedule: Q01DX009 (ip), vehicle: DMSO 99 % of control | dose: 400.0 mg/kg/injection, schedule: Q01DX001 (ip), vehicle: DMSO 102 % of control | dose: 400.0 mg/kg/injection, schedule: Q01DX009 (ip), vehicle: DMSO 91 % of control
